Measurements as given in patent publication US9902696B2, “1,4-substituted piperidine derivatives” (Cephalon, Inc., priority 2015, dated 2018).
Counter-ions that a name gives are not always drawn.

molecular target: T1, recombinant human baculovirus-expressed GST-tagged FASN (Homo sapiens, UniProt P49327); assay: FASN enzyme activity assay, fluorescence-based detection of CoA with CPM; type: biochemical; details: 5 nM FASN, 150 μM NADPH, 10 μM acetyl-CoA, 25 μM malonyl-CoA, 90 minutes incubation; read-out: IC50 data for Compounds of Formulae I-V/V(a): Activity
T1 construct: GST
T1 sequence (P49327 whole entry): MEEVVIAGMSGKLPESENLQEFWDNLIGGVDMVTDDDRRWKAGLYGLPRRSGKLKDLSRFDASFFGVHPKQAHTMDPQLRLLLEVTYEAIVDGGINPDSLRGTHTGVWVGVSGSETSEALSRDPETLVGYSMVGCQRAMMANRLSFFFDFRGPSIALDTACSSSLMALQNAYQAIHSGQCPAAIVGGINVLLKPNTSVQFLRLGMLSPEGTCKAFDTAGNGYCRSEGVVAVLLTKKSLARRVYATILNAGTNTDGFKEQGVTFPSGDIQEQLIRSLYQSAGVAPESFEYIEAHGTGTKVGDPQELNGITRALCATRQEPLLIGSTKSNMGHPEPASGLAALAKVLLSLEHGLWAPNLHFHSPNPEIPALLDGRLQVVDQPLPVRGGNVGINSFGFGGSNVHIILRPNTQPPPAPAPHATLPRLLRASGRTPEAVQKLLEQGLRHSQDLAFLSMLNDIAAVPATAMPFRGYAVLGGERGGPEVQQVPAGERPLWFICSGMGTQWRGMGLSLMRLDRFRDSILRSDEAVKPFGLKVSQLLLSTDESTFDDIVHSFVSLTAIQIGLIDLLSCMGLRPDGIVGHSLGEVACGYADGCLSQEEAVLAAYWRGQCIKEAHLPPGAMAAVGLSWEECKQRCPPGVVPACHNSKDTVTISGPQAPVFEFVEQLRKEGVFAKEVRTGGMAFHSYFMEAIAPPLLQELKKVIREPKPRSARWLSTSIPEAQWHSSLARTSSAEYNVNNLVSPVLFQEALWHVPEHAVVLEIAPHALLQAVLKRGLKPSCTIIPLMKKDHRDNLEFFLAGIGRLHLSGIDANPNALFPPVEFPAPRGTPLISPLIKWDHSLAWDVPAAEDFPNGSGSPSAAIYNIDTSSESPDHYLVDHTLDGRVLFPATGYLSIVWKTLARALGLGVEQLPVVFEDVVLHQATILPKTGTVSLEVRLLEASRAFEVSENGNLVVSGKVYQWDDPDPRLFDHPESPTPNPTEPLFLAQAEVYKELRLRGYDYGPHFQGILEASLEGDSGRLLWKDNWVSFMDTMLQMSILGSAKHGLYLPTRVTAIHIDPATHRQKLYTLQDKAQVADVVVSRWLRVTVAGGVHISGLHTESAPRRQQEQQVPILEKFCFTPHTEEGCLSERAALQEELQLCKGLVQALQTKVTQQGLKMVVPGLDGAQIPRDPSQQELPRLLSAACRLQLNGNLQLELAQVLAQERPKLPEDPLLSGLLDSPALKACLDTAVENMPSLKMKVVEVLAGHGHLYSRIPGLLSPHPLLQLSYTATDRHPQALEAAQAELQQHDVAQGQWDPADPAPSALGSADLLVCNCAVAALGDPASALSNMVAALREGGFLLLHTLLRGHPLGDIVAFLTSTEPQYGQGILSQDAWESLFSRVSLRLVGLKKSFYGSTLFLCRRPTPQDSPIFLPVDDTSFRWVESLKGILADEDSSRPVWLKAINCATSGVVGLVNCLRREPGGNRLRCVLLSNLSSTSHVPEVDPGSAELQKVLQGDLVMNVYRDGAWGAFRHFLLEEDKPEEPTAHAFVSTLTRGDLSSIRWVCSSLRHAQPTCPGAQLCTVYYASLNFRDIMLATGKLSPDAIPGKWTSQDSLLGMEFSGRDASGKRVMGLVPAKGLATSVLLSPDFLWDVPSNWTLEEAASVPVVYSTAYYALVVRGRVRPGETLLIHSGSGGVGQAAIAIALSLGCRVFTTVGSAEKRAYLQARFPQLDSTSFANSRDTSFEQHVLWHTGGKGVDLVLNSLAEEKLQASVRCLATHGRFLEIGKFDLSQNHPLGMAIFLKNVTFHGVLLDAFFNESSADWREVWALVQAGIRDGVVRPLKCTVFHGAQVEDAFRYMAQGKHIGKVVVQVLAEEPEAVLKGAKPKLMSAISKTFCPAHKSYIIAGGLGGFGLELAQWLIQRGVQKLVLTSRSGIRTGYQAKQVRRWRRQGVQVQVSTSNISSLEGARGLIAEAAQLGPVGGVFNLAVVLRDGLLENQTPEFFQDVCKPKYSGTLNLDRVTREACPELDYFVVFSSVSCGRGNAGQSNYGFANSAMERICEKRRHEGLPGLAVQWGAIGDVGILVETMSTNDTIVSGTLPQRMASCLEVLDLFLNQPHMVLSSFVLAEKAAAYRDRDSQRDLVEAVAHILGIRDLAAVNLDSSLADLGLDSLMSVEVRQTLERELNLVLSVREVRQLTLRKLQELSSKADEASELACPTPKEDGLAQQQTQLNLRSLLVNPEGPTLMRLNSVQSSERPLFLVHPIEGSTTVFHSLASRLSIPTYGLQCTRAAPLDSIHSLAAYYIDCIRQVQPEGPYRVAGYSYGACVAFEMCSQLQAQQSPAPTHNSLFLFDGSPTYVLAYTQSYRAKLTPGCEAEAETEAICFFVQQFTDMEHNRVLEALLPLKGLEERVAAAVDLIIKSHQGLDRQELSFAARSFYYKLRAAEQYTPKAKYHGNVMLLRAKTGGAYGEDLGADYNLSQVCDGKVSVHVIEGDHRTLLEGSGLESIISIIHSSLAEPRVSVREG
Procedure, shortened: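 Human GST-tagged FASN, baculovirus-expressed (5 nM), in 50 mM HEPES pH 7.5 with 150 μM NADPH, 10 μM acetyl-CoA, 25 μM malonyl-CoA, 0.5% DMSO; malonyl-CoA-started, 90 min. Released CoA detected with CPM (50 μM dilution), 30 min, fluorescence ex 390/em 530. IC50 from variable-slope sigmoidal fit of % inhibition versus log concentration.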

| SMILES | IC50 |
| --- | --- |
| CCC(=O)N1CCC(Oc2cc(F)c(-c3cnc4ccccc4c3)cc2F)CC1 [Example 215, 1-[4-(2,5-Difluoro-4-quinolin-3-yl-phenoxy)-piperidin-1-yl]-propan-1-one] | 100 to 999 nM |
| CC(C)C(=O)N1CCC(Oc2cc(F)c(-c3cnc4ccccc4c3)cc2F)CC1 [Example 216, 1-[4-(2,5-Difluoro-4-quinolin-3-yl-phenoxy)-piperidin-1-yl]-2-methyl-propan-1-one] | 1000 to 10000 nM |
| O=C(C1CC1)N1CCC(Oc2cc(F)c(-c3cnc4ccccc4c3)cc2F)CC1 [Example 217, Cyclopropyl-[4-(2,5-difluoro-4-quinolin-3-yl-phenoxy)-piperidin-1-yl]-methanone] | 100 to 999 nM |
| N#CCC(=O)N1CCC(Oc2ccc(-c3cnc4ccccc4c3)cc2)CC1 [Example 218, 3-Oxo-3-[4-(4-quinolin-3-yl-phenoxy)-piperidin-1-yl]-propionitrile] | 1000 to 10000 nM |
| CCC(=O)N1CCC(Oc2ccc(-c3ccc4cccnc4c3OC)cc2F)CC1 [Example 219, 1-{4-[2-Fluoro-4-(8-methoxy-quinolin-7-yl)-phenoxy]-piperidin-1-yl}-propan-1-one] | 1 to 99 nM |
| COc1c(-c2ccc(OC3CCN(C(=O)C4CC4)CC3)c(F)c2)ccc2cccnc12 [Example 220, Cyclopropyl-{4-[2-fluoro-4-(8-methoxyquinolin-7-yl)-phenoxy]-piperidin-1-yl}-methanone] | 1 to 99 nM |
| COc1c(-c2ccc(OC3CCN(C(=O)[C@H]4CCCO4)CC3)c(F)c2)ccc2cccnc12 [Example 221, {4-[2-Fluoro-4-(8-methoxyquinolin-7-yl)-phenoxy]-piperidin-1-yl}-(R)-tetrahydrofuran-2-yl-methanone] | 1 to 99 nM |
| O=C(C1CC1)N1CCC(Oc2ccc(-c3ccc4cccnc4c3Cl)cc2F)CC1 [Example 222, {4-[4-(8-Chloroquinolin-7-yl)-2-fluorophenoxy]-piperidin-1-yl}-cyclopropyl-methanone] | 1 to 99 nM |
| O=C([C@H]1CCCO1)N1CCC(Oc2ccc(-c3ccc4cccnc4c3Cl)cc2F)CC1 [Example 223, {4-[4-(8-Chloroquinolin-7-yl)-2-fluorophenoxy]-piperidin-1-yl}-(R)-tetrahydrofuran-2-yl-methanone] | 1 to 99 nM |
| CCC(=O)N1CCC(Oc2ccc(-c3ccc4cccnc4c3Cl)cc2F)CC1 [Example 224, 1-{4-[4-(8-Chloroquinolin-7-yl)-2-fluorophenoxy]-piperidin-1-yl}-propan-1-one] | 1 to 99 nM |
| CCC(=O)N1CCC(Oc2ccc(-c3ccc4cccnc4c3C)cc2F)CC1 [Example 225, 1-{4-[2-Fluoro-4-(8-methylquinolin-7-yl)-phenoxy]-piperidin-1-yl}-propan-1-one] | 1 to 99 nM |
| Cc1c(-c2ccc(OC3CCN(C(=O)[C@H]4CCCO4)CC3)c(F)c2)ccc2cccnc12 [Example 226, {4-[2-Fluoro-4-(8-methylquinolin-7-yl)-phenoxy]-piperidin-1-yl}-(R)-tetrahydrofuran-2-yl-methanone] | 1 to 99 nM |
| Cc1c(-c2ccc(OC3CCN(C(=O)C4CC4)CC3)c(F)c2)ccc2cccnc12 [Example 227, Cyclopropyl-{4-[2-fluoro-4-(8-methylquinolin-7-yl)-phenoxy]-piperidin-1-yl}-methanone] | 1 to 99 nM |
| CCC(=O)N1CCC(Oc2ccc(-c3cnc4ccccc4c3C)cc2F)CC1 [Example 228, 1-{4-[2-Fluoro-4-(4-methylquinolin-3-yl)-phenoxy]-piperidin-1-yl}-propan-1-one] | 100 to 999 nM |
| Cc1c(-c2ccc(OC3CCN(C(=O)C4CC4)CC3)c(F)c2)cnc2ccccc12 [Example 229, Cyclopropyl-{4-[2-fluoro-4-(4-methylquinolin-3-yl)-phenoxy]-piperidin-1-yl}-methanone] | 100 to 999 nM |
| Cc1c(-c2ccc(OC3CCN(C(=O)[C@H]4CCCO4)CC3)c(F)c2)cnc2ccccc12 [Example 230, {4-[2-Fluoro-4-(4-methylquinolin-3-yl)-phenoxy]-piperidin-1-yl}-(R)-tetrahydrofuran-2-yl-methanone] | 1 to 99 nM |
| CCC(=O)N1CCC(Oc2ccc(-c3cnc4ccccc4c3N)cc2)CC1 [Example 231, 1-{4-[4-(4-Aminoquinolin-3-yl)-phenoxy]-piperidin-1-yl}-propan-1-one] | 1000 to 10000 nM |
| CCC(=O)N1CCC(Oc2ccc(-c3cnc4ccccc4c3N(C)C)cc2)CC1 [Example 232, 1-{4-[4-(4-Dimethylaminoquinolin-3-yl)-phenoxy]-piperidin-1-yl}-propan-1-one] | 1000 to 10000 nM |
| CN(C)c1c(-c2ccc(OC3CCN(C(=O)[C@H]4CCCO4)CC3)cc2)cnc2ccccc12 [Example 233, {4-[4-(4-Dimethylaminoquinolin-3-yl)-phenoxy]-piperidin-1-yl}-(R)-tetrahydrofuran-2-yl-methanone] | 1000 to 10000 nM |
| Nc1c(-c2ccc(OC3CCN(C(=O)[C@H]4CCCO4)CC3)cc2)cnc2ccccc12 [Example 234, {4-[4-(4-Aminoquinolin-3-yl)-phenoxy]-piperidin-1-yl}-(R)-tetrahydro-furan-2-yl-methanone] | 100 to 999 nM |
| CCC(=O)N1CCC(Oc2ccc(-c3cnc4ccccc4c3NC)cc2)CC1 [Example 235, 1-{4-[4-(4-Methylaminoquinolin-3-yl)-phenoxy]-piperidin-1-yl}-propan-1-one] | 1000 to 10000 nM |
| CNc1c(-c2ccc(OC3CCN(C(=O)[C@H]4CCCO4)CC3)cc2)cnc2ccccc12 [Example 236, {4-[4-(4-Methylaminoquinolin-3-yl)-phenoxy]-piperidin-1-yl}-(R)-tetrahydrofuran-2-yl-methanone] | 100 to 999 nM |
| CCC(=O)N1CCC(Oc2ccc(-c3cnc4ccccc4c3N3CCOCC3)cc2)CC1 [Example 237, 1-{4-[4-(4-Morpholin-4-yl-quinolin-3-yl)-phenoxy]-piperidin-1-yl}-propan-1-one] | 1000 to 10000 nM |
| O=C([C@H]1CCCO1)N1CCC(Oc2ccc(-c3cnc4ccccc4c3N3CCOCC3)cc2)CC1 [Example 238, {4-[4-(4-Morpholin-4-yl-quinolin-3-yl)-phenoxy]-piperidin-1-yl}-(R)-tetrahydrofuran-2-yl-methanone] | 100 to 999 nM |
| CCC(=O)N1CCC(Oc2ccc(-c3cnc4ccccc4c3N3CCN(C)CC3)cc2)CC1 [Example 239, 1-(4-{4-[4-(4-Methylpiperazin-1-yl)-quinolin-3-yl]-phenoxy}-piperidin-1-yl)-propan-1-one] | 1000 to 10000 nM |
| CN1CCN(c2c(-c3ccc(OC4CCN(C(=O)[C@H]5CCCO5)CC4)cc3)cnc3ccccc23)CC1 [Example 240, (4-{4-[4-(4-Methylpiperazin-1-yl)-quinolin-3-yl]-phenoxy}-piperidin-1-yl)-(R)-tetrahydrofuran-2-yl-methanone] | 1000 to 10000 nM |
| O=C1OCCN1C(=O)N1CCC(Oc2ccc(-c3cnc4ccccc4c3)cc2)CC1 [Example 241, 3-[4-(4-Quinolin-3-yl-phenoxy)-piperidine-1-carbonyl]-oxazolidin-2-one] | 1000 to 10000 nM |

The next lines start with the values.

| IC50 | SMILES |
| --- | --- |
| 1000 to 10000 nM | CC(=O)CC(=O)N1CCC(Oc2ccc(-c3cnc4ccccc4c3)cc2)CC1 [Example 242, 1-[4-(4-Quinolin-3-yl-phenoxy)-piperidin-1-yl]-butane-1,3-dione] |
| 1000 to 10000 nM | O=C1CCCN1C(=O)N1CCC(Oc2ccc(-c3cnc4ccccc4c3)cc2)CC1 [Example 243, 1-[4-(4-Quinolin-3-yl-phenoxy)-piperidine-1-carbonyl]-pyrrolidin-2-one] |
| 1 to 99 nM | N#Cc1ccc(-c2ccc(OC3CCN(C(=O)[C@H]4CCCO4)CC3)cc2)cc1 [Example 244, 4′-[1-((R)-Tetrahydrofuran-2-carbonyl)-piperidin-4-yloxy]-biphenyl-4-carbonitrile] |
| 100 to 999 nM | CCC(=O)N1CCC(Oc2ccc(-c3cc4ccccc4o3)cc2)CC1 [Example 245, 1-[4-(4-Benzofuran-2-yl-phenoxy)-piperidin-1-yl]-propan-1-one] |
| 1000 to 10000 nM | CCC(=O)N1CCC(Oc2ccc(-c3c[nH]c4ccccc34)cc2)CC1 [Example 246, 1-{4-[4-(1H-Indol-3-yl)-phenoxy]-piperidin-1-yl}-propan-1-one] |
| 100 to 999 nM | CCC(=O)N1CCC(Oc2ccc(-c3ccc4sccc4c3)cc2)CC1 [Example 247, 1-[4-(4-Benzo[b]thiophen-5-yl-phenoxy)-piperidin-1-yl]-propan-1-one] |
| 100 to 999 nM | CCC(=O)N1CCC(Oc2ccc(-c3n[nH]c4ccccc34)cc2)CC1 [Example 248, 1-{4-[4-(1H-Indazol-3-yl)-phenoxy]-piperidin-1-yl}-propan-1-one] |
| 100 to 999 nM | CCC(=O)N1CCC(Oc2ccc(-c3ccc4cnn(C)c4c3)cc2)CC1 [Example 249, 1-{4-[4-(1-Methyl-1H-indazol-6-yl)-phenoxy]-piperidin-1-yl}-propan-1-one, TFA salt] |
| 1 to 99 nM | CCC(=O)N1CCC(Oc2ccc(-c3cnc4sccc4c3)cc2)CC1 [Example 250, 1-[4-(4-Thieno[2,3-b]pyridin-5-yl-phenoxy)-piperidin-1-yl]-propan-1-one, TFA salt] |
| 100 to 999 nM | CCC(=O)N1CCC(Oc2ccc(-c3ccc4cn(C)nc4c3)cc2)CC1 [Example 251, 1-{4-[4-(2-Methyl-2H-indazol-6-yl)-phenoxy]-piperidin-1-yl}-propan-1-one] |
| 100 to 999 nM | CCC(=O)N1CCC(Oc2ccc(-c3cnc4ncccc4c3)cc2)CC1 [Example 252, 1-[4-(4-[1,8]Naphthyridin-3-yl-phenoxy)-piperidin-1-yl]-propan-1-one, TFA salt] |
| 1000 to 10000 nM | CCC(=O)N1CCC(Oc2ccc(-c3ccc4ccc(C)nc4c3)cc2)CC1 [Example 253, 1-{4-[4-(2-Methylquinolin-7-yl)-phenoxy]-piperidin-1-yl}-propan-1-one, TFA salt] |
| 1 to 99 nM | O=C([C@H]1CCCO1)N1CCC(Oc2ccc(-c3cnc4sccc4c3)cc2)CC1 [Example 254, (R)-Tetrahydrofuran-2-yl-[4-(4-thieno[2,3-b]pyridin-5-yl-phenoxy)-piperidin-1-yl]-methanone, TFA salt] |
